Source: ChEMBL document CHEMBL1201862, “PubChem BioAssay data set” (2004)
One block for each molecule: values may come before it. Activity calls are given as the source filed them.

Key:
SUMO-activating enzyme [1] = target: T1, SUMO-activating enzyme (Homo sapiens, UniProt Q9UBT2); assay: SUMOylation inhibitor hit validation, confirmation, SUMOylation inhibitor project, biochemical, AlphaScreen (AID 2018); assay type: functional
[2] = target: E3 ubiquitin-protein ligase XIAP (Homo sapiens, UniProt P98170); assay: Counter Screen using XIAP-Bir3 for Chemical Antagonists of Bir1/2 domains of IAP-family anti-apoptotic proteins. [Related pubchem assays (depositor defined):AID1018, AID1449, AID1514, AID1638, AID1749, AID1750, AID488957, AID488963]
SUMO-activating enzyme [3] = target: T1, SUMO-activating enzyme; assay: inhibitors of in vitro SUMOylation cascade, primary screen, biochemical, HTRF, uHTS (AID 2006); assay type: protein-complex assay
Bcl-2-related protein A1 = target: T2, Bcl-2-related protein A1 (Mus musculus, UniProt Q07440); assay type: functional;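 note: confirmatory dose–response counterscreen on Bfl-1, used to check hits from a UBC13 polyubiquitin inhibitor campaign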
T2 sequence (Q07440 whole entry): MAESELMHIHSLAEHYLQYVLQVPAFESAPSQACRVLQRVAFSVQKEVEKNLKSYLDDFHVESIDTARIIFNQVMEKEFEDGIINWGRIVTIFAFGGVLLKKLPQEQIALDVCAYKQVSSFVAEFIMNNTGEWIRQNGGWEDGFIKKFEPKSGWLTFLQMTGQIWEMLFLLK

[4] = target: T3, Ubiquitin-conjugating enzyme E2 N (Homo sapiens, UniProt P61088); assay type: functional
T3 sequence (P61088 whole entry): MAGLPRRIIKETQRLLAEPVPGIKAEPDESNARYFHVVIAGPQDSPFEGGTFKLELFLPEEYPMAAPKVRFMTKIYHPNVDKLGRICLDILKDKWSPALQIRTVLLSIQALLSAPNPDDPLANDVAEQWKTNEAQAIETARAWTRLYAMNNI

[5] = target: T3, Ubiquitin-conjugating enzyme E2 N; assay type: functional; remark: listed apart in the source
[6] = target: T4, Apoptotic protease-activating factor 1 (Homo sapiens, UniProt O14727); assay type: functional
T4 sequence (O14727 whole entry): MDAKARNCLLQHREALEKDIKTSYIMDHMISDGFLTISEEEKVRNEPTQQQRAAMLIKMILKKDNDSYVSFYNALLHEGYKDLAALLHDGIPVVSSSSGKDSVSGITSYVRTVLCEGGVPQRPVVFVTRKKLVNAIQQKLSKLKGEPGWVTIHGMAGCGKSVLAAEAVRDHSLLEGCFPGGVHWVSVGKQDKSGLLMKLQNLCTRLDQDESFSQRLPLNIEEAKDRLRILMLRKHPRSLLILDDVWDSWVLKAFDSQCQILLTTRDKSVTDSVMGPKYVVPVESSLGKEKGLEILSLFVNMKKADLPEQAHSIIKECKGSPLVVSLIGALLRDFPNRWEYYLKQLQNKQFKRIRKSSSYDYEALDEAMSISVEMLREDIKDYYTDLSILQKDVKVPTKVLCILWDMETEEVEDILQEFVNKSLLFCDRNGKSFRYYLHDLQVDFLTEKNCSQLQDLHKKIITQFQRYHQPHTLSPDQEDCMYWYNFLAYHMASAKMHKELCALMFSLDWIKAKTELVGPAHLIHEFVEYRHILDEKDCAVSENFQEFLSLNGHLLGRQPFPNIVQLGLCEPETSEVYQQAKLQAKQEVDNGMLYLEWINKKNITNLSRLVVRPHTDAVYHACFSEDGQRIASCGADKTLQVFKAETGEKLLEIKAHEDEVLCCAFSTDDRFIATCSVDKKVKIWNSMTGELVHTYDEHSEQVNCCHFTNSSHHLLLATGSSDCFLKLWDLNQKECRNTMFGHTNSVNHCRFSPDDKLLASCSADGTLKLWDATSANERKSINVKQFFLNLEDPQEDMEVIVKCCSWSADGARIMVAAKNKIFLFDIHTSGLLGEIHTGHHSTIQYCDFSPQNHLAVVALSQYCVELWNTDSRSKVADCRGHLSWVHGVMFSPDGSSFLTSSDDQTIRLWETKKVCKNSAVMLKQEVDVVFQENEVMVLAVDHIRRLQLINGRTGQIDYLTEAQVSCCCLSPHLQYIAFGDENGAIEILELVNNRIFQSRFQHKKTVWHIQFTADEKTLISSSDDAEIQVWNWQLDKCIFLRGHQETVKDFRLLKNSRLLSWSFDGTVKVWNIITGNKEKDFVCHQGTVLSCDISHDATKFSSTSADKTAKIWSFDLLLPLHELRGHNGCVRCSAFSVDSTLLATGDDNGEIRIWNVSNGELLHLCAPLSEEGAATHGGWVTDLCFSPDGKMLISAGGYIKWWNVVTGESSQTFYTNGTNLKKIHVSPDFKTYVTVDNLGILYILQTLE

[7] = target: T4, Apoptotic protease-activating factor 1; assay: SAR analysis of small molecule inhibitors of Apaf-1 in a Fluorescent assay.; assay type: functional; settings: read-out: IC50_Mean
[8] = target: 26S proteasome non-ATPase regulatory subunit 14 (Homo sapiens, UniProt O00487); assay: inhibition of proteasome subunit RPN11 – biochemical, fluorescence polarization, uHTS hits, confirmation (AID 602368); assay type: functional
[9] = target: 72 kDa type IV collagenase (Homo sapiens, UniProt P08253); assay: Dose Response validation of uHTS RPN11 inhibitor hits using a MMP-2 Fluorescence assay.; assay type: functional
Prothrombin = Prothrombin (Bos taurus, UniProt P00735); assay: thrombin inhibition, dose response, biochemical, fluorescence polarization, uHTS hits (AID 602369); assay type: functional
[10] = HeLa cell cytotoxicity, dose response, cytotoxicity control for MgcRacGAP inhibitor project (AID 624300); assay type: functional
[11] = target: T5, Rac GTPase-activating protein 1 (Homo sapiens, UniProt Q9H0H5); assay: MgcRacGAP GTPase-activating activity inhibitors, confirmation, biochemical, ADP Hunter fluorescence, primary and confirmatory (AID 624330); assay type: functional
T5 sequence (Q9H0H5 whole entry): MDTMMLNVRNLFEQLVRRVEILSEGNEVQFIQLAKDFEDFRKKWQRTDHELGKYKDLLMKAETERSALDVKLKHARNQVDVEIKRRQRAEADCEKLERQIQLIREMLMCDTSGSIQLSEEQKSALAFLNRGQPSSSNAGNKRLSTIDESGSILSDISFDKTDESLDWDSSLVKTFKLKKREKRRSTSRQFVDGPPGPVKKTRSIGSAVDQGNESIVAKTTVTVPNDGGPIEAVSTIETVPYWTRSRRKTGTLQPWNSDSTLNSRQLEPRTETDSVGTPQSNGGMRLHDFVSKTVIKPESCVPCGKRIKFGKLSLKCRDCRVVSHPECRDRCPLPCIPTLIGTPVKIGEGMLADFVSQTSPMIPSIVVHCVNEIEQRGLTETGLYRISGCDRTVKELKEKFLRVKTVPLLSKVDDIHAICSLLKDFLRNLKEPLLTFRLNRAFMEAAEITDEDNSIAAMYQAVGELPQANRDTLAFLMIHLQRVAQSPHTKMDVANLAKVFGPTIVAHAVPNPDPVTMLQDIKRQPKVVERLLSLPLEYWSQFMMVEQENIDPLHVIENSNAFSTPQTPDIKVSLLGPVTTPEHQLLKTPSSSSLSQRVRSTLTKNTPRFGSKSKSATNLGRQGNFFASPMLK

[12] = target: T6, DNA repair protein RAD52 homolog (Homo sapiens, UniProt P43351); assay type: functional, biochemical
T6 sequence (P43351 whole entry): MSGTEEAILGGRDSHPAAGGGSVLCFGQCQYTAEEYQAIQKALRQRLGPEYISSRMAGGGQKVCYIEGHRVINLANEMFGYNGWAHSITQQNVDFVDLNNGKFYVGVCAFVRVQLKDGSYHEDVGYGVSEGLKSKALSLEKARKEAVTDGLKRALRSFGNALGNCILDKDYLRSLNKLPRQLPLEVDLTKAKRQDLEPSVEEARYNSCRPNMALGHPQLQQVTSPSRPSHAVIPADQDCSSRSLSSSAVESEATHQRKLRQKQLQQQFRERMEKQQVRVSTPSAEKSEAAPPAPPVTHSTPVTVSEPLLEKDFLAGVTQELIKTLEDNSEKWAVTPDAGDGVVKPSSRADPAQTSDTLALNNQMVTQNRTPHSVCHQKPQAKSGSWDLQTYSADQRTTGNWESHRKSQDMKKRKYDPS

[13] = target: Glycogen synthase kinase-3 beta (Homo sapiens, UniProt P49841); assay: GSK3beta kinase inhibitors, dose response, biochemical, microfluidics, dry powder samples, set 2 (AID 623989); assay type: functional
[14] = target: Glycogen synthase kinase-3 alpha (Homo sapiens, UniProt P49840); assay: human GSK3 alpha kinase inhibition, dose response, selectivity assay for GSK3beta inhibitor project, biochemical, microfluidics, dry powder samples, set 2 (AID 623978); assay type: functional
[15] = target: Cell division cycle 7-related protein kinase (Homo sapiens, UniProt O00311); assay type: functional;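 note: value obtained from a kinome-wide kinase panel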
[16] = target: Cyclin-dependent kinase 19 (Homo sapiens, UniProt Q9BWU1); assay: Navigating the Kinome. Panel member name: CDC2L6; assay type: functional
Chain of Cyclin-dependent kinase 19 (Q9BWU1 whole entry): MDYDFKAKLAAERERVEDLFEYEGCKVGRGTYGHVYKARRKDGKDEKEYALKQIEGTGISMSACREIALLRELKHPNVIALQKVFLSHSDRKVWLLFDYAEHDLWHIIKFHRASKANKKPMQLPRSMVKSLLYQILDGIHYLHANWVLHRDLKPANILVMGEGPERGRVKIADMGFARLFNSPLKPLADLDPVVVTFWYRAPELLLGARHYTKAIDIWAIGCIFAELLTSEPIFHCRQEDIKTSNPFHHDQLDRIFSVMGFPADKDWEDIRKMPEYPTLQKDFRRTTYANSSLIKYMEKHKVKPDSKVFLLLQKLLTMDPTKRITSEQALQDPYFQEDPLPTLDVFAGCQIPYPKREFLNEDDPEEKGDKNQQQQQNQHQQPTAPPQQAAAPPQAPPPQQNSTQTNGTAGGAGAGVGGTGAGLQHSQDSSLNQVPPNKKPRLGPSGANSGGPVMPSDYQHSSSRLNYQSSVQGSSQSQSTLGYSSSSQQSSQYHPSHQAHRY

T1 sequence (Q9UBE0 whole entry): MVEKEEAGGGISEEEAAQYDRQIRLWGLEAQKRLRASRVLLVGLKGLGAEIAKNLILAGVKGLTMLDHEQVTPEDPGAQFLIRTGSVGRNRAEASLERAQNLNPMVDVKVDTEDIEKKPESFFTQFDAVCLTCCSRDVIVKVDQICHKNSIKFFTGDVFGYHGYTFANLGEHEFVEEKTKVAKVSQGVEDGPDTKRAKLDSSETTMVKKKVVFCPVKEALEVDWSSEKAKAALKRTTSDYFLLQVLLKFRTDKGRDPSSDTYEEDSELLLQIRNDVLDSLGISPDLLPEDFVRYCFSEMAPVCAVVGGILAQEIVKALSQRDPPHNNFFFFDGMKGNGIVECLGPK
T1 sequence (Q9UBT2 whole entry): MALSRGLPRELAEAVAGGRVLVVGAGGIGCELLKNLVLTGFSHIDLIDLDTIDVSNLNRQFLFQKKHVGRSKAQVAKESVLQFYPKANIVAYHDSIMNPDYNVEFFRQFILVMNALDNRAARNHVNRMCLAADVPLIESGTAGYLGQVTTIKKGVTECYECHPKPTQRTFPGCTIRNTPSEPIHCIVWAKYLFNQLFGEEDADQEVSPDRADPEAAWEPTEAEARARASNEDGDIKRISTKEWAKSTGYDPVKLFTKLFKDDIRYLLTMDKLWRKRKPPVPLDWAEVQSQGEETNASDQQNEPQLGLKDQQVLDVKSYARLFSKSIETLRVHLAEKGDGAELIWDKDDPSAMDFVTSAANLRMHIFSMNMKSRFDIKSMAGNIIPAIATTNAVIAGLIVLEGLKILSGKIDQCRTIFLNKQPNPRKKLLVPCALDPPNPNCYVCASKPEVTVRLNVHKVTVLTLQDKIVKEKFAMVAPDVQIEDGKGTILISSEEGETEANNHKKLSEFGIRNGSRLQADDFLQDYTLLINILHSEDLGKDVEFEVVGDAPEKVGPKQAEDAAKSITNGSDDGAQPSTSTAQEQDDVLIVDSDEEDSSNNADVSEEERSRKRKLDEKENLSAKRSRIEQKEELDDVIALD
Chain of Glycogen synthase kinase-3 alpha (P49840 whole entry): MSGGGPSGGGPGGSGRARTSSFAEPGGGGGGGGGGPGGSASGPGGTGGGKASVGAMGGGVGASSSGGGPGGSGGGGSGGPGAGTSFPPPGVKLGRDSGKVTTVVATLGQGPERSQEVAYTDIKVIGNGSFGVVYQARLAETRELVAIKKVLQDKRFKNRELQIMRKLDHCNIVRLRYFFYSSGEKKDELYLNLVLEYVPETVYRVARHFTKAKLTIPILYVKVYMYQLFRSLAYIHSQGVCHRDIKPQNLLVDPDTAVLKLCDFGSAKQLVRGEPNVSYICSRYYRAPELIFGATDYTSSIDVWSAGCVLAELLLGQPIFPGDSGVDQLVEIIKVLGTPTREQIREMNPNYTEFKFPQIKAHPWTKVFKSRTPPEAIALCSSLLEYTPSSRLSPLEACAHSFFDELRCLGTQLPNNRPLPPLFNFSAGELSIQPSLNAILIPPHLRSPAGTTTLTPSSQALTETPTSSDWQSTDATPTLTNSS
Chain of 26S proteasome non-ATPase regulatory subunit 14 (O00487 whole entry): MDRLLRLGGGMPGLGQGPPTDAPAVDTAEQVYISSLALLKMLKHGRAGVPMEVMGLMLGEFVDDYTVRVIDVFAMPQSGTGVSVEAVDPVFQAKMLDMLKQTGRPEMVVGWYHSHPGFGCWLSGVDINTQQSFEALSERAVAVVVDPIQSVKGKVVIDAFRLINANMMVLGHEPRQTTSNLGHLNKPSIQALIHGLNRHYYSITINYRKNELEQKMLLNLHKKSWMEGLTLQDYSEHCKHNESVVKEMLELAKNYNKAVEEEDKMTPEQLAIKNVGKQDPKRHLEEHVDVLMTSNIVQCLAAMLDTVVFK
Chain of 72 kDa type IV collagenase (P08253 whole entry): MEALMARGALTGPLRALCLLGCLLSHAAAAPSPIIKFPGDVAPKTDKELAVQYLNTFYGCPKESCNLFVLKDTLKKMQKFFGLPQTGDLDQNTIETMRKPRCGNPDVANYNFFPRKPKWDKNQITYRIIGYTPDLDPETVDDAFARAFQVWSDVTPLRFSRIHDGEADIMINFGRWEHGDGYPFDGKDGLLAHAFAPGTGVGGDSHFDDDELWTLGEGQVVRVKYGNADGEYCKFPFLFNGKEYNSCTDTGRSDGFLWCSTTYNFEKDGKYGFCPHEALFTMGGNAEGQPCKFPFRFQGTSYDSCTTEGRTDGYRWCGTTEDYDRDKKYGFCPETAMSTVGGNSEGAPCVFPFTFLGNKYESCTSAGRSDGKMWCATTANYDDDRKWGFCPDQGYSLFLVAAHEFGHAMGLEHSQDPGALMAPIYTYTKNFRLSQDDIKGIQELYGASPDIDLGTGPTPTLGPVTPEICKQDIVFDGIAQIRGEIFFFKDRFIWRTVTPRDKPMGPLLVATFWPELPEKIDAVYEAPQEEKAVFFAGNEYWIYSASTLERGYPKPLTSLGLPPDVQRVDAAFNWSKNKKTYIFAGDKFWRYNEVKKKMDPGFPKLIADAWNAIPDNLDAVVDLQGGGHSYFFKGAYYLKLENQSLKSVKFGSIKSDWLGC
Chain of Cell division cycle 7-related protein kinase (O00311 whole entry): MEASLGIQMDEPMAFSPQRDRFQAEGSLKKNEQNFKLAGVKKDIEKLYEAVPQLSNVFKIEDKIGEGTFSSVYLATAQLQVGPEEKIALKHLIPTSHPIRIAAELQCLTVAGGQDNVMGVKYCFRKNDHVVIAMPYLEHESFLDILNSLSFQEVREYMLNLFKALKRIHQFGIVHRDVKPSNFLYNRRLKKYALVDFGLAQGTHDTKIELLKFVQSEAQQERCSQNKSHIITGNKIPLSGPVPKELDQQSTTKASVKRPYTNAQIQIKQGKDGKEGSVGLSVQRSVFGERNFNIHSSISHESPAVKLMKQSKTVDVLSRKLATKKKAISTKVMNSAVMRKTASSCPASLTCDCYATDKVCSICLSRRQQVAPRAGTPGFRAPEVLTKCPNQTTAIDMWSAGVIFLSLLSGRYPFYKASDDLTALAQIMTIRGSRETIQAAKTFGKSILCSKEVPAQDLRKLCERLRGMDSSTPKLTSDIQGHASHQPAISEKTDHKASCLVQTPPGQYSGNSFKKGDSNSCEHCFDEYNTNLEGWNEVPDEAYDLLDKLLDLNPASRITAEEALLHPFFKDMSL
Chain of Glycogen synthase kinase-3 beta (P49841 whole entry): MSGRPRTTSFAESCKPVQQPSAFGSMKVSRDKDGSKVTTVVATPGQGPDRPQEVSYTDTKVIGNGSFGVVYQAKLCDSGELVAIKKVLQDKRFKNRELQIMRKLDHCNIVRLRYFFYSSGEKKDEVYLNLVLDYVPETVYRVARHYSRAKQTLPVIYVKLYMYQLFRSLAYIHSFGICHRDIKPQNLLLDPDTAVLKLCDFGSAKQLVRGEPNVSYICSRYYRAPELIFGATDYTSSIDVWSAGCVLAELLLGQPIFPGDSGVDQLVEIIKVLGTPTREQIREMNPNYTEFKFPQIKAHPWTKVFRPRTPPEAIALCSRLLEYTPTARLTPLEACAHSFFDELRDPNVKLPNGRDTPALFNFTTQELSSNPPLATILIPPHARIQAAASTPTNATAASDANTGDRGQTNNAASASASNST
Chain of E3 ubiquitin-protein ligase XIAP (P98170 whole entry): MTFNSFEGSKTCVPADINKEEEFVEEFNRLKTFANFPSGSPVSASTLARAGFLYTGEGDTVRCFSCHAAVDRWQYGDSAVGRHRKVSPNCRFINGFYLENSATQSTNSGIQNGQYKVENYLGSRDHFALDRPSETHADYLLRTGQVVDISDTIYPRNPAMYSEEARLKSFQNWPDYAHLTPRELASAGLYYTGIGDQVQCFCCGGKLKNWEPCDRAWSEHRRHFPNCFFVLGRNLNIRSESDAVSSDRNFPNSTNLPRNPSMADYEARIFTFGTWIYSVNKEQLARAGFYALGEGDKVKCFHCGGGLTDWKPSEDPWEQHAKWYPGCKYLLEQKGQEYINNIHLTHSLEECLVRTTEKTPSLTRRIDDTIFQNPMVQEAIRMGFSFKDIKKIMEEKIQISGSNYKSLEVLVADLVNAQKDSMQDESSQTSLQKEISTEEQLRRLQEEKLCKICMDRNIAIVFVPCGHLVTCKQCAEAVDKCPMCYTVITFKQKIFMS

IC50 (SUMO-activating enzyme [1]): 7.12 µM (active)
IC50 [2]: > 20 µM (inactive)
IC50 (SUMO-activating enzyme [3]): 11.7 µM (active)
IC50 (Bcl-2-related protein A1): 3.44 µM (active)
IC50 [4]: 3.76 µM (active)
IC50 [5]: 3.02 µM (active)
IC50 [6]: 4.09 µM (active)
IC50 [7]: 3.93 µM (active)
IC50 [8]: 23.2 µM (active)
IC50 [9]: > 100 µM (inactive)
IC50 (Prothrombin): 28.7 µM (active)
IC50 [11]: 32.4 µM (active)
AC50 [12]: 10.9 µM (active)
Compound: CCN(CC)CCOC(=O)c1ccc(N/C=C(/C#N)c2nc(-c3ccc(OC)c(OC)c3)cs2)cc1
CC50 [10]: 92.3 µM (active)

AC50 [13]: 0.509 µM (active)
AC50 [14]: 1.87 µM (active)
Compound: COC(=O)c1ccc(CSc2ccc3nnc(-c4ccc(F)cc4)n3n2)o1

Ki [15]: 0.251 µM (active)
Ki [16]: 31.6 µM (active)
Compound: CN(C)CCNC(=O)c1ccc(-c2ccnc(Nc3cccc(F)c3)n2)cc1
